Assay results taken from patent publication US20240317708A1, “INHIBITORS OF TRANSGLUTAMINASES” (ZEDIRA GMBH, priority 2021, published 2024).

Columns and labels:
[1] = Caco-2 permeability assay (CacoReady kit); assay type: in vitro ADME; settings: human
How it was run: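 Intestinal permeability modelled with kit-supplied Caco-2 barriers, run as the maker specifies; each compound reported as Papp.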

[2] = biological target: T1, recombinant human transglutaminase 2 (Homo sapiens, UniProt P21980); experiment: Transglutaminase assay (dansylcadaverine incorporation into dimethylcasein, DCC-assay); assay type: biochemical; settings: recombinant human TG2 10 nM, dansylcadaverine/dimethylcasein, 37° C.
T1 construct: purchased Zedira T022
T1 sequence (P21980 1-687): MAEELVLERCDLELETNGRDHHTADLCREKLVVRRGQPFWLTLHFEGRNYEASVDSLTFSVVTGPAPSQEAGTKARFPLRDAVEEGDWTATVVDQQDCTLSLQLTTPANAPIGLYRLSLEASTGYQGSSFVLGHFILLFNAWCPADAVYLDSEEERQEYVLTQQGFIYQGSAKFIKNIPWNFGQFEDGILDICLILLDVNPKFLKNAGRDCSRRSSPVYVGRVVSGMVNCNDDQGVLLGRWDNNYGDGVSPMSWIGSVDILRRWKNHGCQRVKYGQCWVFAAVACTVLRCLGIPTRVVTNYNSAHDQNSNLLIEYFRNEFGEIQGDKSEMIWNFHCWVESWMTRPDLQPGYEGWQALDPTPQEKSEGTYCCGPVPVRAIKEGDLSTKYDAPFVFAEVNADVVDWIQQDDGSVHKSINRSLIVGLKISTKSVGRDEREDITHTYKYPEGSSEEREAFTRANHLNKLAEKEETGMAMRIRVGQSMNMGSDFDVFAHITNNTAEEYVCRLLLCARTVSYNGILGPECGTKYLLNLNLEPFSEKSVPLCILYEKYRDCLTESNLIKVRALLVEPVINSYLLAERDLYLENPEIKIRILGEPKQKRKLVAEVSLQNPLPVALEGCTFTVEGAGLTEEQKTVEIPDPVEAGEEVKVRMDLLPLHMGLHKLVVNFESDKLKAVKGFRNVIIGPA
How it was run: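 IC50 derived from fluorescence slope between 20 and 30 min (λex 330 nm, λem 500 nm, 37 °C), expressed relative to a 2% DMSO control. Reaction: 10 nM recombinant human TG2, 4 μM dimethylcasein, 16.7 μM dansylcadaverine, 10 mM CaCl2 and glutathione, pH 8.0.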

[3] = Log D shake flask method (octanol / PBS pH 7.4, HPLC); assay type: physicochemical; settings: octanol/phosphate-buffered saline (PBS); octanol / PBS pH 7.4, shake flask
Protocol: In order to classify the inventive compounds according to their lipophilicity, Log D values (distribution coefficient) were determined by means of the well-established shake flask method, measuring the partition of a compound between an octanol and phosphate-buffered saline (PBS, pH 7.4) by HPLC.

## COC(=O)/C=C/CC[C@H](NC(=O)c1oc2ccccc2c1C)C(=O)Nc1cccn(CC(=O)N[C@H]2C[C@H]3C[C@@H]([C@@H]2C)C3(C)C)c1=O [III-70, (S,E)-methyl 6-(3-methylbenzofuran-2-carboxamido)-7-oxo-7-(2-oxo-1-(2-oxo-2-((1S,2S,3S,5R)-2,6,6-trimethylbicyclo[3.1.1]heptan-3-ylamino)ethyl)-1,2-dihydropyridin-3-ylamino)hept-2-enoate]
[1]
  Papp: 1 to 10 ×10⁻⁶ cm/s
[2]
  IC50: < 25 nM
[3]
  logD: 3 to 5

## COC(=O)/C=C/CC[C@H](NC(=O)c1snnc1C)C(=O)Nc1cccn(CC(=O)N[C@@H]2C[C@@H]3CC[C@H]2C3)c1=O [III-115, (S,E)-methyl 7-(1-(2-((1S,2R,4R)-bicyclo[2.2.1]heptan-2-ylamino)-2-oxoethyl)-2-oxo-1,2-dihydropyridin-3-ylamino)-6-(4-methyl-1,2,3-thiadiazole-5-carboxamido)-7-oxohept-2-enoate]
[1]
  Papp: < 1 ×10⁻⁶ cm/s
[2]
  IC50: < 25 nM
[3]
  logD: 1 to 3

## COC(=O)/C=C/CC[C@H](NC(=O)c1cc(Cl)sc1Cl)C(=O)Nc1cccn(CC(=O)NC23CC4(C)CC(C)(CC(C)(C4)C2)C3)c1=O [III-94, (S,E)-methyl 6-(2,5-dichlorothiophene-3-carboxamido)-7-(1-(2-(3,5,7-trimethyl-1-adamantylamino)-2-oxoethyl)-2-oxo-1,2-dihydropyridin-3-ylamino)-7-oxohept-2-enoate]
[1]
  Papp: 1 to 10 ×10⁻⁶ cm/s
[2]
  IC50: < 25 nM
[3]
  logD: 3 to 5

## COC(=O)/C=C/CC[C@H](NC(=O)c1cc(Cl)sc1Cl)C(=O)Nc1cccn(CC(=O)N[C@@H]2C[C@H]3CC[C@@H]2C3)c1=O [III-97, (S,E)-methyl 7-(1-(2-((1R,2R,4S)-bicyclo[2.2.1]heptan-2-ylamino)-2-oxoethyl)-2-oxo-1,2-dihydropyridin-3-ylamino)-6-(2,5-dichlorothiophene-3-carboxamido)-7-oxohept-2-enoate]
[1]
  Papp: 1 to 10 ×10⁻⁶ cm/s
[2]
  IC50: < 25 nM
[3]
  logD: 3 to 5

## Cc1c(C(=O)N[C@@H](CC/C=C/C(=O)N(C)C)C(=O)Nc2cccn(CC(=O)NC3C4CC5CC(C4)CC3C5)c2=O)oc2ccccc12 (stereo partly drawn) [III-75, (S,E)-N^7-(1-(2-(2-adamantylamino)-2-oxoethyl)-2-oxo-1,2-dihydropyridin-3-yl)-N^1,N^1-dimethyl-6-(3-methylbenzofuran-2-carboxamido)hept-2-enediamide]
[1]
  Papp: 1 to 10 ×10⁻⁶ cm/s
[2]
  IC50: 25 to 250 nM
[3]
  logD: 3 to 5

## COC(=O)/C=C/CC[C@H](NC(=O)c1cnnn1C)C(=O)Nc1cccn(CC(=O)NC23CC4(C)CC(C)(CC(C)(C4)C2)C3)c1=O [III-93, (S,E)-methyl 7-(1-(2-(3,5,7-trimethyl-1-adamantylamino)-2-oxoethyl)-2-oxo-1,2-dihydropyridin-3-ylamino)-6-(1-methyl-1H-1,2,3-triazole-5-carboxamido)-7-oxohept-2-enoate]
[1]
  Papp: 1 to 10 ×10⁻⁶ cm/s
[2]
  IC50: < 25 nM
[3]
  logD: 1 to 3

## COC(=O)/C=C/CC[C@H](NC(=O)c1ccncc1)C(=O)Nc1cccn(CC(=O)NC2C3CC4CC(C3)CC2C4)c1=O (stereo partly drawn) [III-84, (S,E)-methyl 6-(isonicotinamido)-7-(1-(2-(2-adamantylamino)-2-oxoethyl)-2-oxo-1,2-dihydropyridin-3-ylamino)-7-oxohept-2-enoate]
[1]
  Papp: < 1 ×10⁻⁶ cm/s
[2]
  IC50: < 25 nM
[3]
  logD: 3 to 5

## COC(=O)/C=C/CC[C@H](NC(=O)c1oc2ccccc2c1C)C(=O)Nc1cccn(CC(=O)NC2C3CC4CC(C3)CC2C4)c1=O (stereo partly drawn) [III-2, (S,E)-methyl 7-(1-(2-(2-adamantylamino)-2-oxoethyl)-2-oxo-1,2-dihydropyridin-3-ylamino)-6-(3-methylbenzofuran-2-carboxamido)-7-oxohept-2-enoate]
[1]
  Papp: 1 to 10 ×10⁻⁶ cm/s
[2]
  IC50: < 25 nM
[3]
  logD: 3 to 5
